# In US9616010B2, “Cosmetic composition comprising a ternary lipid association for controlling dryness of the skin” (PIERRE FABRE DERMO-COSMETIQUE, priority 2013, dated 2017):
# Key:
# isolated stratum corneum = conditions: Levi et al., Int J Cosmet Sci. 2010; 32: 276-93; cited from earlier work
# [1] = system: isolated stratum corneum (SC) from human skin explants; assay: Mechanical stress within isolated SC subjected to dehydration stress in an environmental chamber (substrate curvature)
# Text: These elements led the Applicant to use an in vitro model of isolated SC to study changes in mechanical properties as a function of hydration level. Measuring skin tension makes it possible to define a relationship between skin dryness and skin stress, and the appearance of cracks. Moreover, the use of this model makes it possible to know with a high degree of accuracy the effect of active agents on these mechanical measurements and, consequently, on the hydration state of the stratum corneum. (K. Levi, R. J. Weber, J. Q. Do and R. H. Dauskardt. International Journal of Cosmetic Science, 2010, 32, 276-293 Drying stress and damage processes in human stratum corneum) (K. Levi and R. H. Dauskardt. International Journal of Cosmetic Science, 2010, 32, 294-298 Application of substrate curvature method to differentiate drying stresses in topical coatings and human stratum corneum).
# The mechanical approach used here consists in measuring the mechanical stress produced within SC that has been isolated and subjected to dehydration stress in an environmental chamber.
# The SC specimen—from human skin explants—was isolated by enzymatic digestion. It was placed on a borosilicate slide to which it naturally adheres.
# The SC, initially 100% hydrated, is then placed in an atmosphere with 7% air humidity. The SC then undergoes a progressive dehydration, during which measurements of SC tension are taken every 15 minutes for 8 hours using a stress measurement device. […] Given the differences that exist between its mechanical properties and those of the support (the slide), the latter bends. By means of this radius of curvature, measured with a laser interferometer, it is then possible to calculate the state of tension/stress from the Stoney equation. The initial data correspond to a measurement of the variation of the curvature of the unit (borosilicate slide+SC). It is possible to calculate the biomechanical stress parameters of the SC, such as tension, from knowledge of the biomechanical properties of the borosilicate slide, its thickness, and the thickness of the SC (see methodology FIG. 1; and bibliographical reference K. Levi, et al., IJCS 2010).
# This first kinetics study makes it possible to know the behavior of untreated SC. Next, the unit (SC+slide) is returned to 100% air humidity for 2 hours and then incubated in the various treatments for 5 minutes. A […] film is deposited: using a spiral filmograph for liquid emollients and a slide for creams. At the end of this period the unit is again placed in 7% air humidity for the study of dehydration kinetics until stabilization of the measurements (generally 8 to 12 hours). […]
substance,measurement,setting,value
isocetyl stearoyl stearate [compound 1],efficacy with respect to the shrinking of the stratum corneum specimen desiccated by a lack of moisture,isolated stratum corneum,good efficacy
same,maximum stress within the SC,"[1]; SC pretreated 5 minutes, then 7% air humidity, compared with untreated control, FIG. 3",momentarily greater than the control
same,time to reach minimum stress plateau,"[1]; after the stress starts to fall, 7% air humidity, FIG. 3",2 h
same,time after which the stress falls,"[1]; hours of dehydration at 7% air humidity, FIG. 3",3 h
same,shrinking of the skin induced by drying stress,"[1]; topical application, during the first 4 hours, FIG. 1",increases
